Experimental data taken from paper PMC9388626, “STUB1 is an intracellular checkpoint for interferon gamma sensing” (Scientific Reports, 2022).

What was measured:
B16-F10 cells = assay: Flow cytometry, surface IFNGR1, mCherry2-peptide stable cells; type: cell-based, murine; details: stable expression; resting and IFNγ-stimulated (mouse IFNγ 0.03 ng ml^−1, 24 h)
Source text: (§1) To generate the plasmids, gBlocks gene fragments (IDT) encoding the inhibitory biologic (FLAG-mCherry2-GGSGGS-SIWWPD) and the control biologic (FLAG-mCherry2-GGSGGS-SIWWHR) were cloned into pEF6 vector (Thermo Fisher Scientific) by standard restriction enzyme digestion and T4 DNA ligation. The final constructs were verified by Sanger sequencing. Coding sequences of the constructs are provided in Supplementary Table S5. To generate the stable cell lines, a total of 2 × 10^5 B16-F10, A375 or A549 cells were electroporated with 200 ng plasmid using DJ-110, FF-120 or CM-130 respectively—the preset programmed in 4D-nucleofector system (Lonza). The preparation of the cell suspension and the process of the electroporation are similar to that described in the CRISPR method section. The stable cell lines were selected using 10 µg ml^−1 blasticidin three days post-electroporation and were maintained in 5 µg ml^−1 blasticidin once the stable colonies were established. […]
(§2) Cells were dissociated from the wells with 0.25% trypsin (Gibco, 25200056). […] Cells were analyzed on LSRFortessa X-20 (BD Biosciences) with appropiate fluorescence compensation. The data were analyzed using FlowJo. […]

A375 cells [1] = assay: as above; type: cell-based; details: A375, stable expression; untreated or human IFNγ 0.01 ng ml^−1, 24 h
Source text: as §1, §2

A549 cells [2] = assay: as above; type: cell-based; details: A549, stable expression; untreated or human IFNγ 0.01 ng ml^−1, 24 h
Source text: as §1, §2

A375 cells [3] = assay: Flow cytometry, surface MHC-I, mCherry2-peptide stable cells; type: cell-based; details: A375, stable expression; human IFNγ 0.01 ng ml^−1, 24 h
Source text: as §1, §2

A549 cells [4] = assay: as above; type: cell-based; details: A549, stable expression; human IFNγ 0.01 ng ml^−1, 24 h
Source text: as §1, §2

STUB1 = assay: Co-immunoprecipitation of FLAG-mCherry2-peptide and STUB1; type: binding, murine; details: B16-F10 lysate, anti-FLAG
Experimental: B16-F10 cells stably expressing the biologic were harvested, rinsed with PBS, and lysed with chilled cell lysis buffer (Cell Signaling Technology, #9803) supplemented with Halt protease inhibitor cocktail (Life Technologies, #78430) and phosphatase inhibitor (Sigma-Aldrich, # 4906837001). Cellular lysates were clarified by centrifugation at 15,000 rpm at 4 °C for 15 min. Protein concentration was determined using BCA protein assay kit (Pierce, #23225). For each sample of the co-immunoprecipitation (co-IP), 20 µl of anti-FLAG magnetic beads (Sigma-Aldrich, M8823) was rinsed twice with 0.2 ml PBS, followed by addition of 500 µl diluted cellular lysate (60 µg, 0.12 µg µl^−1). For competitive inhibition, synthetic peptide (SIWWPD) was added into the co-IP mixture. The resulting mixture was rotated at room temperature for 4 h, after which the beads were rinsed with 3 × 0.5 ml PBS to remove the unbound proteins. Bound protein complexes were directly eluted with a 20 µl solution of LDS sample buffer (Life Technologies, NP0008) supplemented with sample reducing agent (Life Technologies, NP0009), followed by heating at 70 °C for 10 min. […] Blotting was similar to the Western Blot section described above. Primary antibodies used were: STUB1/CHIP (Cell Signaling Technology, #2080, 1:1000 dilution), FLAG (Sigma-Aldrich, F1804, 1:1000 dilution). […]

MCF7 cells [5] = assay: Growth inhibition, CellTiter-Glo 2.0 (ATP); type: cell-based, human; details: MCF7, 10 ng ml^−1, 6 days
Experimental: (§3) Parental and CRISPR-edited tumour cells were seeded in a cell density of 1800 (DU145), 2000 (PC-3), or 10,000 (MCF7) per well in 96-well CellCarrier plate (PelkinElmer, #6005550) filled with 50 µl culture media + 10% FBS. After 20–24 h incubation, the cells were treated with 10 ng ml^−1 of recombinant human IFNγ (R&D Systems, 285-IF-100), 10 ng ml^−1 of recombinant human TNFα (R&D Systems, 210-TA-020/CF) or a combination of both, by adding an equal volume of the complete culture media containing the cytokines. After incubating for 6 days without media change, the CellTiter-Glo 2.0 (Promega, G9243) or CellTiter-Fluor (Promega, G6082) assay were performed according to manufacturer’ instructions. The luminescence or fluorescence (Ex: 380–400 nm, Em: 505 nm) were detected by Inifinte M1000 PRO (Tecan). For CellTiter-Fluor, triplicate wells without cells were included to determine background fluorescence and the signal average was used for background substraction.

DU145 cells = assay: Growth inhibition, CellTiter-Fluor (live-cell protease activity); type: cell-based, human; design: scale not given here; details: 10 ng ml-1 each, 6-day
Experimental: as §3

MCF7 cells [6] = assay: as above; type: cell-based, human; design: scale not given here; details: 10 ng ml-1 each, 6-day
Experimental: as §3

PC-3 cells = assay: as above; type: cell-based, human; design: scale not given here; details: 10 ng ml-1 each, 6-day
Experimental: as §3

mCherry2-SIWWPD
Cell surface IFNGR1 (B16-F10 cells): upregulation of IFNGR1 on the cell surface of B16-F10, under both resting and IFNγ-stimulating conditions | Cell surface IFNGR1 (A375 cells [1]): also resulted in the same phenotype | Cell surface IFNGR1 (A549 cells [2]): also resulted in the same phenotype | Cell surface MHC-I (A375 cells [3]): boost the surface levels of MHC-I in response to IFNγ | Cell surface MHC-I (A549 cells [4]): boost the surface levels of MHC-I in response to IFNγ | Co-precipitation of STUB1 (STUB1): STUB1 was co-precipitated

TNFα
Growth inhibition of PTPN2- or STUB1-null cells (MCF7 cells [5]): could sensitize MCF7 breast tumour cell | FC in live-cell protease activity relative to parental cells (DU145 cells; DU145 PTPN2 sgRNA, replicate 1): 0.07 | FC in live-cell protease activity relative to parental cells (DU145 cells; DU145 PTPN2 sgRNA, replicate 2): 0.13 | FC in live-cell protease activity relative to parental cells (DU145 cells; DU145 PTPN2 sgRNA, replicate 3): -0.00707 | FC in live-cell protease activity relative to parental cells (DU145 cells; DU145 Parental, replicate 1): -0.0322 | FC in live-cell protease activity relative to parental cells (DU145 cells; DU145 Parental, replicate 2): 0.08 | FC in live-cell protease activity relative to parental cells (DU145 cells; DU145 Parental, replicate 3): -0.05 | FC in live-cell protease activity relative to parental cells (DU145 cells; DU145 STUB1 sgRNA, replicate 1): 0.0056 | FC in live-cell protease activity relative to parental cells (DU145 cells; DU145 STUB1 sgRNA, replicate 2): 0.0106 | FC in live-cell protease activity relative to parental cells (DU145 cells; DU145 STUB1 sgRNA, replicate 3): 0.16 | FC in live-cell protease activity relative to parental cells (DU145 cells; DU145 control sgRNA, replicate 1): -0.0256 | FC in live-cell protease activity relative to parental cells (DU145 cells; DU145 control sgRNA, replicate 2): -0.00666 | FC in live-cell protease activity relative to parental cells (DU145 cells; DU145 control sgRNA, replicate 3): -0.0248 | FC in live-cell protease activity relative to parental cells (MCF7 cells [6]; MCF7 PTPN2 sgRNA, replicate 1): -0.29 | FC in live-cell protease activity relative to parental cells (MCF7 cells [6]; MCF7 PTPN2 sgRNA, replicate 2): -0.31 | FC in live-cell protease activity relative to parental cells (MCF7 cells [6]; MCF7 PTPN2 sgRNA, replicate 3): -0.32 | FC in live-cell protease activity relative to parental cells (MCF7 cells [6]; MCF7 Parental, replicate 1): 0.00519 | FC in live-cell protease activity relative to parental cells (MCF7 cells [6]; MCF7 Parental, replicate 2): -0.01 | FC in live-cell protease activity relative to parental cells (MCF7 cells [6]; MCF7 Parental, replicate 3): 0.00479 | FC in live-cell protease activity relative to parental cells (MCF7 cells [6]; MCF7 STUB1 sgRNA, replicate 1): -0.18 | FC in live-cell protease activity relative to parental cells (MCF7 cells [6]; MCF7 STUB1 sgRNA, replicate 2): -0.39 | FC in live-cell protease activity relative to parental cells (MCF7 cells [6]; MCF7 STUB1 sgRNA, replicate 3): -0.36 | FC in live-cell protease activity relative to parental cells (MCF7 cells [6]; MCF7 control sgRNA, replicate 1): -0.14 | FC in live-cell protease activity relative to parental cells (MCF7 cells [6]; MCF7 control sgRNA, replicate 2): -0.16 | FC in live-cell protease activity relative to parental cells (MCF7 cells [6]; MCF7 control sgRNA, replicate 3): -0.18 | FC in live-cell protease activity relative to parental cells (PC-3 cells; PC-3 PTPN2 sgRNA, replicate 1): 0.08 | FC in live-cell protease activity relative to parental cells (PC-3 cells; PC-3 PTPN2 sgRNA, replicate 2): -0.06 | FC in live-cell protease activity relative to parental cells (PC-3 cells; PC-3 PTPN2 sgRNA, replicate 3): 0.13 | FC in live-cell protease activity relative to parental cells (PC-3 cells; PC-3 Parental, replicate 1): 0.11 | FC in live-cell protease activity relative to parental cells (PC-3 cells; PC-3 Parental, replicate 2): -0.05 | FC in live-cell protease activity relative to parental cells (PC-3 cells; PC-3 Parental, replicate 3): -0.07 | FC in live-cell protease activity relative to parental cells (PC-3 cells; PC-3 STUB1 sgRNA, replicate 1): 0.20 | FC in live-cell protease activity relative to parental cells (PC-3 cells; PC-3 STUB1 sgRNA, replicate 2): 0.00375 | FC in live-cell protease activity relative to parental cells (PC-3 cells; PC-3 STUB1 sgRNA, replicate 3): -0.0246 | FC in live-cell protease activity relative to parental cells (PC-3 cells; PC-3 control sgRNA, replicate 1): 0.19 | FC in live-cell protease activity relative to parental cells (PC-3 cells; PC-3 control sgRNA, replicate 2): 0.026 | FC in live-cell protease activity relative to parental cells (PC-3 cells; PC-3 control sgRNA, replicate 3): -0.06
